In series [1] the test system is HCT-116. Nature of the series: Cytotoxicity against human HCT-116 cells assessed as reduction in cell viability incubated for 48 hrs by AlamarBlue-based assay. The settings on record: HCT-116, 48 h. It counts as functional. A general note: The colour change of resazurin is a common sign of viable cells or microbes.
Series [2] in a line: Inhibition of refolded MDH reporter enzyme (unknown origin). Also noted: species or system Homo sapiens.
A short description of series [3]: Cytotoxicity against human FHC cells assessed as reduction in cell viability incubated for 48 hrs by AlamarBlue-based assay. It counts as toxicity.
Series [4] in a line: Inhibition of Escherichia coli GroEL expressed in NEB-5-alpha Escherichia coli cells/Escherichia coli GroES expressed in Escherichia coli BL21(DE3) cells assessed as inhibition of GroEL/ES-mediated dRho refolding by reporter analysis.
A short description of series [5]: Cytotoxicity against human FHs74Int cells assessed as reduction in cell viability incubated for 48 hrs by AlamarBlue-based assay. The series is classed as toxicity.
Series [6] deals with HCT-116. Kind of series: Cytotoxicity against p53-/- human HCT-116 cells assessed as reduction in cell viability incubated for 48 hrs by AlamarBlue-based assay. The settings on record: HCT-116, 48 h. The series is classed as functional.
Series [7] is described as follows: Inhibition of refolded rhodanese reporter enzyme (unknown origin). The arrangement: species or system Homo sapiens.
Series [8] in a line: Inhibition of human mitochondrial HSP60 expressed in Escherichia coli Rosetta 2 (DE3) cells/human mitochondrial HSP10 expressed in Escherichia coli Rosetta 2 (DE3) pLysS cells assessed as inhibition of […]-mediated dMDH refolding by reporter analysis. It counts as mitochondria, Mitochondria.
Series [9] has as its system HT-29. Nature of the series: Cytotoxicity against human HT-29 cells assessed as reduction in cell viability incubated for 48 hrs by AlamarBlue-based assay. The series is classed as functional. As to conditions: HT-29, 48 h.
A short description of series [10]: Inhibition of Escherichia coli GroEL expressed in NEB-5-alpha Escherichia coli cells/Escherichia coli GroES expressed in Escherichia coli BL21(DE3) cells assessed as inhibition of GroEL/ES-mediated dMDH refolding by reporter analysis.
For series [11], the system named is DLD-1. Nature of the series: Cytotoxicity against human DLD-1 cells assessed as reduction in cell viability incubated for 48 hrs by AlamarBlue-based assay. It counts as functional. The settings on record: DLD-1, 48 h.
The nature of series [12]: Selectivity index, ratio of CC50 for cytotoxicity against non-cancerous cells to EC50 for cytotoxicity against human HCT-116 cells. The settings on record: non-cancerous cells versus HCT-116 cells, read-out: Ratio CC50/EC50. It counts as toxicity, cell-based.

For orientation: EC50 means the concentration needed to bring the measured effect to its halfway point. In general, IC50 refers to the concentration at which inhibition is half-maximal. What is called CC50 is the concentration that lowers cell viability or growth by half.

In the case of `O=C(NCc1ccccc1)c1ccccc1`, the EC50 in series [1], in series [6], in series [9] and in [11] was over 100 µM throughout. For the same molecule, the IC50 was over 63 µM in series [2]; over 250 µM in series [4]; over 100 µM in series [7]; over 100 µM in [8]; over 100 µM in series [10]. Moreover, the CC50 at 48 h in series [3] and in [5] was over 100 µM in each case.
With `CC(=O)Nc1ccc(C(=O)/C=C/c2ccccc2)cc1`, in series [12], the selectivity ratio came to 6.7. In addition, the EC50 in series [1] turned out to be 11 µM; in [6], 11 µM; in series [9] it was 13 µM; in series [11], 28 µM. Further, the IC50 in [2] is over 63 µM; in series [4], 40 µM; in [7], over 100 µM; in [8], 14 µM; in series [10], 9.4 µM. Further, the values for the CC50 at 48 h in [3] and in series [5] were 86 µM and 58 µM, respectively.
With `O=C(/C=C/c1ccc(O)cc1)c1ccccc1` [4-HYDROXYCHALCONE], the selectivity ratio in series [12] stood at 3.1. Also, the EC50 in series [1] came to 32 µM; in series [6], 32 µM; in series [9] it was 39 µM; in series [11], 51 µM. For the same molecule, the half-maximal inhibitory concentration (IC50) in series [2] is over 63 µM; in [4], 39 µM; in series [7], over 100 µM; in series [8], 21 µM; in series [10] it was 20 µM. Also, the CC50 at 48 h is over 100 µM in [3] and 97 µM in series [5].
`COc1ccc(/C=C/C(=O)c2ccccc2)cc1` [4-METHOXY CHALCONE]: the selectivity ratio in series [12] amounted to 4.4. The EC50 came to 22 µM in [1], 30 µM in [6], 32 µM in series [9] and 52 µM in series [11]. Also, the IC50 in series [2] was over 63 µM; in series [4], 46 µM; in series [7], over 100 µM; in series [8], 22 µM; in [10], 27 µM. Besides, the CC50 at 48 h in series [3] is 99 µM; in series [5], 91 µM.
Consider `O=C(/C=C/c1ccccc1)c1ccc(NC(=O)c2ccccc2)cc1`, for which the selectivity ratio in series [12] was 3.9. Moreover, the EC50 in series [1] came to 17 µM; in [6] it was 28 µM; in series [9], 36 µM; in [11], 46 µM. In addition, the IC50 in [2] is over 63 µM; in series [4], 27 µM; in series [7] it was over 100 µM; in series [8], 5.9 µM; in [10], 4.3 µM. Besides, the CC50 at 48 h in series [3] is 73 µM; in [5], 60 µM.
For the molecule `OC(/C=C/c1ccccc1)c1ccccc1` (stereo unspecified), the EC50 in series [1], in [6], in series [9] and in series [11] was over 100 µM in each case. The IC50 in [2] was over 63 µM; in series [4], over 250 µM; in series [7] it was over 100 µM; in [8], over 100 µM; in series [10] it was over 100 µM. The CC50 at 48 h in series [3] and in series [5] was over 100 µM throughout.
As to `O=C(/C=C/c1ccco1)c1ccc(NC(=O)c2ccccc2)cc1`, the selectivity ratio in series [12] turned out to be 2.4. The EC50 in series [1] is 42 µM; in series [6], 59 µM; in [9] it was 76 µM; in [11], 69 µM. The IC50 is over 63 µM in [2]; 37 µM in series [4]; over 100 µM in series [7]; 20 µM in series [8]; 21 µM in [10]. Moreover, the CC50 at 48 h in [3] and in series [5] was over 100 µM throughout.
As for `O=C(/C=C/c1ccco1)c1ccc(NC(=O)c2cccs2)cc1`, the selectivity ratio in series [12] was 2.4. In addition, the EC50 is 33 µM in series [1], 45 µM in [6], 50 µM in series [9] and 56 µM in series [11]. Besides, the IC50 is over 63 µM in series [2]; 9.7 µM in [4]; over 100 µM in [7]; 12 µM in series [8]; 6.7 µM in series [10]. The 50% cytotoxic concentration (CC50) at 48 h in [3] worked out at 93 µM; in series [5], 68 µM.
As to `COc1ccc(C(=O)/C=C/c2ccccc2)cc1` [4'-METHOXYCHALCONE], the selectivity ratio in series [12] came out at 3.2. Also, the EC50 was 16 µM in series [1], 17 µM in [6], 23 µM in series [9] and 35 µM in [11]. Besides, the IC50 in series [2] is over 63 µM; in [4], 34 µM; in [7], over 100 µM; in series [8] it was 16 µM; in series [10], 13 µM. The CC50 at 48 h in [3] is 62 µM; in series [5] it was 37 µM.
As to `CC(=O)Nc1ccc(C(=O)/C=C/c2ccco2)cc1`, the selectivity ratio in [12] is 1.8. The EC50 came out at 56 µM in series [1], 72 µM in series [6], 88 µM in series [9] and 84 µM in series [11]. Besides, the IC50 in [2] was over 63 µM; in series [4], 67 µM; in series [7] it was over 100 µM; in series [8], 44 µM; in series [10], 41 µM. For the same molecule, the CC50 at 48 h in [3] is over 100 µM; in series [5], 99 µM.
Consider `O=C(CCc1ccccc1)c1ccccc1`, for which the EC50 in [1], in series [6], in [9] and in series [11] was over 100 µM throughout. The IC50 in [2] was over 63 µM; in [4], over 250 µM; in series [7], over 100 µM; in series [8], over 100 µM; in series [10] it was over 100 µM. Moreover, the CC50 at 48 h in series [3] and in series [5] was over 100 µM each time.
As for `O=C(/C=C/c1cccc([N+](=O)[O-])c1)c1ccc(NC(=O)c2ccccc2)cc1`, the selectivity ratio in series [12] was 24. In addition, the EC50 was 4.1 µM in series [1], 25 µM in [6], 3.9 µM in [9] and over 100 µM in series [11]. The IC50 in series [2] is over 63 µM; in series [4], 3.1 µM; in [7], over 100 µM; in [8], 2.3 µM; in [10] it was 0.71 µM. Also, the cytotoxic concentration (CC50) at 48 h in [3] and in [5] was over 100 µM each time.
Consider `Nc1ccc(C(=O)/C=C/c2ccco2)cc1`, for which the selectivity ratio in series [12] came out at 4.2. The EC50 was 21 µM in series [1], 24 µM in series [6], 28 µM in series [9] and 31 µM in [11]. Besides, the IC50 in series [2] worked out at 46 µM; in [4], 12 µM; in series [7], 55 µM; in [8], 9.8 µM; in [10], 5.9 µM. Besides, the CC50 at 48 h in [3] came to 90 µM; in series [5], 86 µM.
In the case of `O=C(/C=C/c1ccccc1)c1ccccc1` [CHALCONE], the selectivity ratio in [12] worked out at 6.2. Also, the EC50 in series [1] came out at 9.5 µM; in series [6], 11 µM; in [9] it was 14 µM; in series [11], 25 µM. In addition, the IC50 was over 63 µM in [2]; 27 µM in series [4]; over 100 µM in series [7]; 8.6 µM in series [8]; 7.1 µM in [10]. Also, the CC50 at 48 h in series [3] worked out at 71 µM; in [5] it was 46 µM.
For `CC(=O)Nc1ccc(C(=O)/C=C/c2cccc([N+](=O)[O-])c2)cc1`, in series [12], the selectivity ratio worked out at 7.9. Further, the EC50 came to 1.7 µM in series [1], 1.8 µM in series [6], 2 µM in series [9] and 6.3 µM in series [11]. Besides, the IC50 in series [2] is over 63 µM; in [4], 7 µM; in series [7] it was over 100 µM; in series [8] it was 7.7 µM; in series [10], 2.1 µM. Also, the results for the CC50 at 48 h in series [3] and in series [5] were 15 µM and 12 µM, respectively.
On to `O=C(/C=C/c1ccccc1)c1ccc(O)cc1` [4'-HYDROXYCHALCONE], for which the selectivity ratio in series [12] came to 3.7. Further, the EC50 in series [1] was 20 µM; in series [6] it was 21 µM; in [9], 30 µM; in [11], 34 µM. Also, the IC50 in series [2] is over 63 µM; in series [4], 61 µM; in series [7] it was over 100 µM; in series [8] it was 21 µM; in [10] it was 20 µM. In addition, the CC50 at 48 h in series [3] is 82 µM; in series [5], 65 µM.
For `Nc1ccc(C(=O)/C=C/c2ccccc2)cc1`, the selectivity ratio in series [12] amounted to 3.7. In addition, the EC50 was found to be 27 µM in series [1], 23 µM in series [6], 35 µM in [9] and 33 µM in series [11]. In addition, the IC50 in series [2] was over 63 µM; in series [4], 135 µM; in [7], over 100 µM; in series [8], 43 µM; in [10], 57 µM. Besides, the CC50 at 48 h in series [3] was over 100 µM; in series [5], 97 µM.

Values taken from ChEMBL document CHEMBL5150040, “Bis-aryl-α,β-unsaturated ketone (ABK) chaperonin inhibitors exhibit selective cytotoxicity to colorectal cancer cells that correlates with levels of aberrant HSP60 in the cytosol” (Bioorg Med Chem, 2022).
